Measurements as given in patent US20090142285A1, “COSMETIC COMPOSITION COMPRISING ASCORBIC ACID 2-GLUCOSIDE AND ERGOTHIONEINE” (LVMH RECHERCHE, priority 2007, published 2009).
Values belong to the compound of their own block, whether it stands above or below them.

What was measured:
[1] = tested on: glycosylase type DNA repair enzymes; test: OLISA biochip: excision of modified DNA bases by nuclear extracts of treated fibroblasts, donor (FHN52); format: cell-based, human; details: for digestion activity (elimination of modified DNA bases formed as a result of oxidative stress): overall conclusion
Experimental: (§1) Fibroblasts were obtained from a breast sample from a person and from photo-protected skin of a person.
(§2) Fibroblasts from each of the donors, […] (FHN52) and […] (FHN 1C), were cultured and treated in the exponential growth phase.
(§3) Fibroblasts were treated with ergothioneine (AGI Dermatics, Newport, N.Y., USA) at a non-cytotoxic concentration of 4 mM for 24 hours.
(§4) Treatment of fibroblasts with ascorbic acid 2-glucoside (Siber Hegner, Miribel, France) was carried out at a non-cytotoxic concentration of 50 μM of […] for 24 hours.
(§5) Nuclear extracts were prepared in order to obtain protein solutions containing the repair enzymes of interest.
(§6) Extracts were used at a final concentration of 10 μg/ml.
(§7) OLISA technology (Bonnet-Duquennoy et al., Eur. J. Dermatol., 16, 2, 136-140 2006) was used to measure the excision of nucleic bases modified by glycosylase type DNA repair enzymes.
(§8) The principle (FIG. 1) is described in the publication entitled: “An oligonucleotide micro-array for the monitoring of repair enzyme activity toward different DNA damage”, Sauvaigo et al., Annal. Biochem. (2004); 333: 182-192.
(§9) Labelled oligonucleotide probes immobilised on the support generate synthetic double strand DNA containing in their base sequence, the altered base whose repair activity by cellular enzymes is being studied.
(§10) The probes were determined in order to study enzyme repair typical lesions resulting from exposure to oxidative stress (FIG. 2).
(§11) An OLISA format chip (96-well plate; bioMérieux, Grenoble, France) with 17 spots was functionalised by oligonucleotides containing the various lesions of interest (LAN synthesis, CEA, Grenoble, France).
(§12) Functionalised wells were incubated at 30° C. in the presence of the extract of interest.
(§13) The duration of digestion chosen is 45 minutes for the experiments. Extracts were deposited in four wells.
(§14) Thus for each lesion, the percentage of lesions remaining after the extract activity is determined by calculating the ratio of “extract” well signals with respect to control wells which represent 100% lesions (calculation carried out using the mean of the 8 values obtained).
(§15) Similarly, to determine the effect of each of the 2 active ingredients on specific digestion of extracts, data obtained for each of the lesions were normalised by data obtained with the control oligonucleotide normalised by the control.

[2] = tested on: glycosylase type DNA repair enzymes; test: OLISA biochip: excision of modified DNA bases by nuclear extracts of treated fibroblasts, donor (FHN 1C); format: cell-based, human
Experimental: as §1, §2, §3, §4, §5, §6, §7, §8, §9, §10, §11, §12, §13, §14, §15

[3] = tested on: non-specific digestive activity (nuclease) of cell extracts; test: OLISA biochip: non-specific digestion of control oligonucleotide (no lesion) by extracts of treated fibroblasts; format: cell-based, human; details: immediately after treatment, 2 donors
Experimental: as §2, §3, §4, §5, §7
For this study, 2 spots per lesion of interest or control oligonucleotide (without lesion) and 3 spots used to direct the readings were used.
as §12, §13
In order to determine the effect of ergothioneine, on the one hand, and of ascorbic acid 2-glucoside, on the other, on non-specific digestion of extracts, data obtained with the control oligonucleotide normalised by the control were used.
In the same way, an analysis was carried out for each of the 2 donors tested. […]

keratinocytes = details: cited from earlier work
[4] = tested on: mouse skin cells placed in culture; details: cited from earlier work
human cell lines = details: cited from earlier work
Fibroblasts = test: Cytotoxicity of the treatment concentration on fibroblasts; format: cell-based, human; details: 4 mM for 24 hours
Experimental: as §3, §4

[5] = ascorbic acid 2-glucoside 50 μM, 24 hours after treatment, donor (FHN 52)
[6] = ascorbic acid 2-glucoside 50 μM, 24 hours after treatment
[7] = ergothioneine 4 mM 24 hours, rinsed, recultured without ergothioneine a further 24 hours, donor (FHN 52)
[8] = ergothioneine 4 mM 24 hours, donor (FHN 52), immediately after treatment
[9] = ergothioneine 4 mM 24 hours, immediately after treatment

residual percentage of 8-oxo-dG lesion [1, 5]: decreases significantly
residual percentage of formylamine lesion [1, 5]: decreases significantly
residual percentage of inosine lesion [1, 5]: decreases significantly
residual percentage of uracil lesion [1, 5]: decreases significantly
digestion activity (elimination of modified DNA bases formed as a result of oxidative stress) ([1]; ascorbic acid 2-glucoside 50 μM, fibroblast extracts of donor): significantly increases
residual percentage of 8 oxodG lesion [2, 6]: decreases significantly
residual percentage of formylamine lesion [2, 6]: decreases significantly
residual percentage of inosine lesion [2, 6]: decreases significantly
residual percentage of uracil lesion [2, 6]: decreases significantly
SMILES: O=C1O[C@H]([C@@H](O)CO)C(O)=C1O[C@H]1O[C@H](CO)[C@@H](O)[C@H](O)[C@H]1O [ascorbic acid 2-glucoside, 2-O-α-D-Glucopyranosyl L-ascorbic acid]
effect on the control oligonucleotide (non-specific digestion) ([3]; ascorbic acid 2-glucoside 50 μM for 24 hours): did not have a significant effect
protection against cytotoxicity caused by UVB (keratinocytes): effective agent in protecting keratinocytes
cell DNA fragmentation after damage caused by UVA or UVB [4]: reduction in the cell DNA fragmentation

SMILES: C[N+](C)(C)[C@@H](Cc1c[nH]c(=S)[nH]1)C(=O)[O-] [ergothioneine]
residual percentage of 8-oxo-dG lesion [1, 7]: decreases significantly
residual percentage of HmdU lesion [1, 7]: decreases significantly
residual percentage of ethenoda lesion [1, 7]: decreases significantly
residual percentage of formylamine lesion [1, 7]: decreases significantly
residual percentage of inosine lesion [1, 7]: decreases significantly
residual percentage of formylamine lesion [1, 8]: decreases significantly
residual percentage of inosine lesion [1, 8]: decreases significantly
residual percentage of uracil lesion [1, 8]: decreases significantly
residual percentage of 8 oxodG lesion ([1]; ergothioneine 4 mM 24 hours, donor (FHN 52), immediately after treatment, normalised to control oligonucleotide): decreases significantly
digestion activity (elimination of modified DNA bases formed as a result of oxidative stress) ([1]; ergothioneine 4 mM, fibroblast extracts): significantly increases
DNA oxidation caused by peroxinitrites (human cell lines): inhibits
cell death triggered by hydrogen peroxide (human cell lines): inhibits
residual percentage of formylamine lesion [2, 9]: decreases significantly
residual percentage of uracil lesion [2, 9]: decreases significantly
effect on the control oligonucleotide (non-specific digestion) ([3]; ergothioneine 4 mM for 24 hours): no significant effect
cytotoxicity at treatment concentration (Fibroblasts): non-cytotoxic
